The text below walks through data of PMC5145181, “Structural Mapping and Functional Characterization of Zebrafish Class B G-Protein Coupled Receptor (GPCR) with Dual Ligand Selectivity towards GLP-1 and Glucagon” (PLoS ONE, 2016).

For assay [1], the system named is zfGPCR (dual zfGLP-1R/GCGR). The assay is described as follows: Competitive binding, displacement of 125I-exendin(9–39) from recombinant zfGPCR expressed in COS-7 cells. Also on record: species or system zebrafish (Danio rerio). The note with it: 125I-exendin(9–39) tracer, intact COS-7 cells, 16–18 h at 4°C, triplicate wells, NSB with 1 μM peptide, n = 4 zfGLP-1, n = 3 hGLP-1, zf glucagon, exendin-4, n = 5 exendin(9–39). 95% CI: zfGLP-1 225–371, hGLP-1 121–262, zf glucagon 78.5–144, h glucagon 33.6–134, exendin-4 0.84–1.17, exendin(9–39) 3.42–5.17. As for the experimental part: Competitive binding experiments were performed with the recombinant zfGPCR expressed in COS-7 cells, as described previously. Transient transfections of pcDNA3 vector containing recombinant zfGPCR into COS-7 cells were performed as described below for the stimulation of intracellular cAMP. Cells were grown in 100-mm plates to confluence and 24 hr after transfection they were trypsinized and transferred to 24 well plates (Biocore, Becton Dickinson). 24–48 hr later each peptide (pM to μM) was added in triplicate wells followed by the addition of an aliquot (100,000 cpm/well) of either ^125I-hGLP-1(7–36)amide or ^125I-exendin(9–39) (each radioactive peptide tracer at […] receptor grade, NEN Life Science Products, Boston, MA). Peptides, radioiodinated ^125I-tracer and cells were incubated for 16–18 h at 4°C. After incubation cells were washed twice with ice-cold PBS, lysed with 1N NaOH and radioactivity measured in a γ-counter. A single dose-displacement curve for each peptide was obtained in a single 24-well plate.
Non-specific binding was determined in the presence of 1μM of each peptide.
IC50 values represent an average of n experiments as described above and were calculated by the Prism 4 software. Displacement curves from the competitive binding experiments were plotted by Origin 9 software (OriginLab). Error bars are shown for data points in the displacement curves obtained in two or more rounds of transfections.
(§1) Results from the functional experiments with recombinant zfGPCR transiently expressed in COS-7 cells were analyzed by the Prism 4 software using a four-parameter logistic sigmoidal curve fit model. Data points represent mean +/- SEM.
They are shown together with the 95% confidence intervals (CIs). The F-test was used to compare the IC50 value for zfGLP-1 with the IC50 values for the other tested peptides obtained in the competitive binding experiments shown when ^125I-hGLP-1(7–36)amide or ^125I-exendin (9–39) were used as tracers. Following conditions were used for the curve fitting: (i) in the normalization step y = 0%was set to be 0, y = 100% was set to be 100; (ii) constrained curve-fit parameters were set to be equal to 0.00 on the bottom, 100 on top; (iii) IC50 was not constrained; (iv) the selected option in the non-linear regression curve fit was intended on finding out whether the best-fit of a selected parameter (IC50) differs between two sets.
(In a radioligand displacement assay an active substance lowers the binding of a labelled ligand.)

Assay [2] concerns hGLP-1R mutant Asn318 to alanine. Also on record: method as in PMID 23479653. The note with it: Asn318 mutated to alanine, cell surface expression unchanged; cited from earlier work.
Assay [3] has as its system zfGPCR (dual zfGLP-1R/GCGR). The experiment in a line: Intracellular cAMP in COS-7 cells expressing recombinant zfGPCR. The assay is classed as cell-based, zebrafish (Danio rerio). The note with it: 20 min at 37°C, pH 7.4, 1 mM 1-methyl-3-isobutylxanthine, enzyme immunoassay; n = 9 zfGLP-1, n = 5 hGLP-1, zf glucagon, h glucagon, n = 3 exendin-4, n = 6 zfGLP-2. 95% CI: zfGLP-1 0.24–0.80; hGLP-1 0.65–1.63; zf glucagon 0.20–2.9; h glucagon 0.18–1.63; exendin-4 0.07–0.46; zfGLP-2 16.8–72.6. As for the experimental part:
The ability of different peptides to stimulate the increase in intracellular cAMP levels following their binding to the recombinant zfGPCR transiently expressed in COS-7 cells was measured using methods that we developed for non-mammalian G-protein coupled receptors. In brief, COS-7 cells were grown to confluence in 100-mm plates at 37°C and transfected with the pcDNA3 vector containing the recombinant zfGPCR using the TransFast transfection reagent (Promega, Madison, WI) at a […] of plasmid DNA (25 ug) to transfection reagent (75 μL). After 24 h cells were trypsynized and transferred to 24-well plates (Biocore, Becton-Dickinson, Franklin Lakes, NJ). Peptides (pM-μM) were added 24–48 h later. Cells were equilibrated prior to the addition of peptides with the assay buffer (DMEM, 0.5% BSA, 20mM HEPES, 1mM 1-methyl-3-isobutylxanthine, 0.1mM phenylmethylsulfonyl fluoride, pH 7.4) for 20 min at 37°C. Each peptide concentration was added in triplicate wells for 20 min at 37°C. cAMP dose-response curves for each tested peptide were obtained in a single 24-well plate. In all experiments, forskolin (100 nM) (Sigma-Aldrich, St.Louis, MO) was added as a positive control, also in triplicate wells, in the same 24-well plate as the tested peptide. After incubation, the media was removed and cells were lysed by the addition of cold ethanol (1 mL per well). Cell debris was pelleted by centrifugation (10,000 g) for 10-min, and supernatants were dried using a vacuum concentrator. Samples were resuspended in an assay buffer provided by the manufacturer and cAMP levels were quantified by the enzyme immunoassay kit (Cayman Chemicals, Ann Arbor, MI) according to the manufacturer’s instructions. The basal concentration of cAMP (in the absence of peptides) was taken as 1.00, and was in the range of 9–16 pmol/well. Results are presented as a fold-increase over basal.
Results were plotted by the Origin 9 software (OriginLab), and EC50 values were calculated by Prism 4 software as described below.
as §1
They are shown together with the 95% confidence intervals (CIs).
Comparison of EC50 values calculated from the zfGLP-1 cAMP dose-response curve with the EC50 calculated from the cAMP dose-response curves for each of the tested peptides were performed by the F-test from the Prism 4 software which compares the fitted mid-point (EC50) from the data sets of the two dose-response curves under comparison. Conditions of analysis were as follows: (i) in the normalization step y = 0% was set to be 1 (the basal cAMP concentration taken as 1); y = 100% was set to be the largest value in each data set; (ii) constrained curve-fit parameters were set to be equal to 0.00 on the bottom, 100 on top; (iii) EC50 was not constrained; (iv) the selected option in the non-linear regression curve fit was intended on finding out whether the best-fit of a selected parameter (EC50) differs between two sets.

pEC50, pIC50: −log10 of the molar value.

The pIC50 is the IC50 on a negative log10 scale, so that one unit is a factor of ten. In general, pEC50 refers to the EC50 on a negative log10 scale, so that one unit is a factor of ten. “exendin-4: peptide exclusively found in the saliva of a lizard; agonist of GLP-1R; purchased from Bachem”: in assay [1], the negative-log IC50 (pIC50) was 9.00. Moreover, in assay [2], the receptor affinity result is listed as “reduced the receptor’s affinity”. The pEC50 in assay [3] is 9.74.
